The results in this text go back to patent US20230355568A1, “THERAPEUTIC AGENT FOR MALIGNANT MESOTHELIOMA AND METHOD FOR SELECTING PATIENT HAVING MALIGNANT MESOTHELIOMA” (National University Corporation Tokai National Higher …, priority 2020, published 2023).

Where a name gives a salt, the structure may show the parent alone. Bridge positions count the residues as written; N and C are the ends. Square brackets hold non-standard residues; d marks the D form. Peptide text beside a SMILES is read from it. Orn = NCCC[C@H](N)C(=O)O; Mpa = O=C(O)CCS

In assay [1] the test system is malignant mesothelioma cell line NCI-2373. Description: WST-1 assay with oxytocin receptor inhibitor, NCI-2373. The note with it: culture five days, Cligosiban 0-60 μM, other inhibitors 0-80 μM (FIG. 3, FIG. 4). In kind it is cell-based. As to the method:
(§1) The procedure is illustrated below. • (1) Cells of malignant mesothelioma cell line NCI-H2052 were seeded on a dish and cultured for one day. • (2) Cligosiban was administered to the dish at a concentration of 0, 5, 10, 15, 20, or 25 μM. • (3) After culture for five days, evaluation with WST-1 assay was performed. The WST-1 assay is an assay method to administer cell proliferation test agent WST-1 (product number: 11644807001, purchased from Roche) and evaluate cell proliferation by a colorimetric method.
The same procedure as that in Example 3 was applied except that the malignant mesothelioma cell line was replaced with NCI-2373 (purchased from ATCC) and Cligosiban was administered to the dish at a concentration of 0, 20, 30, 40, 50, or 60 μM.
The same procedure as that in Example 4 was applied except that the oxytocin receptor inhibitor was replaced with OT-R antagonist 1, which was administered to the dish at a concentration of 0, 20, 40, 60, or 80 μM.
The same procedure as that in Example 6 was applied except that the oxytocin receptor inhibitor was replaced with L368,899 hydrochloride.
The same procedure as that in Example 6 was applied except that the oxytocin receptor inhibitor was replaced with Atosiban.

Assay [2] concerns malignant mesothelioma cell line NCI-H2373. Description: WST-1 assay, combined use of Cligosiban and cisplatin, NCI-H2373. In kind it is cell-based. Conditions: Cligosiban 45 μM and/or cisplatin 6 μM, culture five days (FIG. 8). As to the method: (§2) The procedure is illustrated below. • (1) Cells of malignant mesothelioma cell line NCI-H2373 were seeded on a dish and cultured for one day. • (2) Cligosiban 45 μM and cisplatin (product number 033-20091, purchased from FUJIFILM Wako Pure Chemical Corporation) 6 μM were administered to the dish. • (3) After culture for five days, evaluation with WST-1 assay was performed.
The same procedure as that in Example 21 was applied except that only Cligosiban 45 μM was administered.
The same procedure as that in Example 21 was applied except that neither Cligosiban 45 μM nor cisplatin 6 μM was administered.
The same procedure as that in Example 21 was applied except that only cisplatin 6 μM was administered.

Assay [3] concerns malignant mesothelioma cell line NCI-H2052. Description: WST-1 assay with oxytocin receptor inhibitor, NCI-H2052. The class given is cell-based. The note with it: culture five days, Cligosiban 0-25 μM, other inhibitors 0-80 μM (FIG. 3, FIG. 4). As to the method:
as §1
The same procedure as that in Example 3 was applied except that the oxytocin receptor inhibitor was replaced with OT-R antagonist 1 (purchased from MedChemExpress), which was administered to the dish at a concentration of 0, 20, 40, 60, or 80 μM.
The same procedure as that in Example 5 was applied except that the oxytocin receptor inhibitor was replaced with L368,899 hydrochloride (purchased from MedChemExpress).
The same procedure as that in Example 5 was applied except that the oxytocin receptor inhibitor was replaced with Atosiban (purchased from MedChemExpress).
In general terms: Tetrazolium dyes change colour on reduction, which living cells bring about.

For assay [4] the test system is unchanged. Description: Proliferation suppression of malignant mesothelioma cells with Cligosiban using Xenograft model. In kind it is in vivo. Conditions: NCI-H2052 subcutaneous in nude mice, Cligosiban oral 60 mg/kg every other day, 10 doses, vs no Cligosiban (FIG. 1). How it is done: (§3) The procedure is illustrated below. • (1) 5.0×10^6 cells of malignant mesothelioma cell line NCI-H2052 (purchased from ATCC) were administered to the subcutaneous left buttock of nude mice (BALB/c nude (nu/nu) female, 6 to 8 weeks old: purchased from Charles River Japan). • (2) After 3 days from the subcutaneous administration, oral administration of Cligosiban (purchased from MedChemExpress) was started, and the oral administration was applied at each dose of 60 mg/kg every other day for a total of 10 doses. • (3) After one week from the tenth oral administration, the nude mice were dissected, and the subcutaneous tumor weights were measured.
The same procedure as that in Example 1 was applied except that no Cligosiban was administered.

Assay [5] has the same test system. Description: WST-1 assay, combined use of Cligosiban and cisplatin, NCI-H2052. Conditions: Cligosiban 15 μM and/or cisplatin 0.8 μM, culture five days (FIG. 8). The class given is cell-based. As to the method: as §2
The same procedure as that in Example 21 was applied except that the malignant mesothelioma cell line was replaced with NCI-H2052 and that Cligosiban 15 μM and cisplatin 0.8 μM were administered to the dish.
The same procedure as that in Example 22 was applied except that the malignant mesothelioma cell line was replaced with NCI-H2052 and that Cligosiban 15 μM was administered.
The same procedure as that in Example 23 was applied except that neither Cligosiban 15 μM nor cisplatin 0.8 μM was administered.
The same procedure as that in Example 23 was applied except that only cisplatin 0.8 μM was administered.

Assay [6] shares this test system. Description: Xenograft model: cisplatin and pemetrexed, Cligosiban, and combined use. In kind it is in vivo. The note with it: NCI-H2052 subcutaneous in nude mice; Cligosiban oral 60 mg/kg every other day, 10 doses from day 7; cisplatin 2 mg/kg and pemetrexed 25 mg/kg once tail vein day 7; measured two days after tenth dose (FIG. 9). As to the method:
as §3, with “After 7” for “After 3”, “After 7 days from the subcutaneous administration, cisplatin (product number 033-20091, purchased from FUJIFILM Wako Pure Chemical Corporation) 2 mg/kg and pemetrexed disodium heptahydrate (product number 161-26263, purchased from FUJIFILM Wako Pure Chemical Corporation) 25 mg/kg were once injected into a tail vein. • (4) After two days” for “After one week”, “oral administration of Cligosiban,” for “oral administration,”
The same procedure as that in Example 25 was applied except that neither cisplatin nor pemetrexed was administered.
The same procedure as that in Example 25 was applied except that neither Cligosiban nor cisplatin and pemetrexed was administered.
The same procedure as that in Example 25 was applied except that Cligosiban was not administered.

Consider `COCc1nnc(N2CC(Oc3ccc(F)cc3Cl)C2)n1-c1ccc(OC)nc1` [Cligosiban], for which the “proliferation of malignant mesothelioma cells (WST-1 assay)” value (shortened to “proliferation”) in assay [1] was “more suppresses proliferation of malignant mesothelioma cells”; in assay [2] it was “more suppresses proliferation of malignant mesothelioma cells than Comparative example 11 and Comparative example 13”; in assay [3] it was “more suppresses proliferation of malignant mesothelioma cells”; in assay [5], “more suppresses proliferation of malignant mesothelioma cells than Comparative example 11 and Comparative example 13”. For the same compound, the subcutaneous tumor weight entry in assay [4] (from day 3, measured one week after tenth dose) is “smaller than that of Comparative example 1”; in assay [6], “smaller than the subcutaneous tumor weight of Comparative example 16”. In addition, the “growth of the subcutaneous tumor” value in assay [4] is listed as “suppresses growth of the subcutaneous tumor statistically, significantly compared to Comparative example 1”.
For the compound `CCOc1ccc(C[C@H]2NC(=O)CCSSC[C@@H](C(=O)N3CCC[C@H]3C(=O)N[C@@H](CCCN)C(=O)NCC(N)=O)NC(=O)[C@H](CC(N)=O)NC(=O)[C@H]([C@@H](C)O)NC(=O)[C@H]([C@@H](C)CC)NC2=O)cc1` [Atosiban] ([Mpa][dY](Et)ITNCP[Orn]G-NH2; disulfide 1-6), the “proliferation” value in assay [1] and in assay [3] was “proliferation of malignant mesothelioma cells was suppressed” throughout.
Consider `CO/N=C1/C[C@@H](C(=O)NC[C@@H](O)c2ccccc2)N(C(=O)c2ccc(-c3ccccc3C)cc2)C1` [OT-R antagonist 1], for which the “proliferation” value in assay [1] and in assay [3] was “proliferation of malignant mesothelioma cells was suppressed” throughout.
On to `Cc1ccccc1N1CCN(S(=O)(=O)C[C@@]23CC[C@H](CC2NC(=O)[C@H](N)CCS(C)(=O)=O)C3(C)C)CC1` (stereo partly drawn) [L368,899 hydrochloride], for which the “proliferation” value in assay [1] and in assay [3] was “proliferation of malignant mesothelioma cells was suppressed” each time.
Consider `N.N.[Cl][Pt][Cl]` [cisplatin], for which the “proliferation” value is “more suppresses proliferation of malignant mesothelioma cells than Comparative example 11 and Comparative example 13” in assay [2]; “more suppresses proliferation of malignant mesothelioma cells than Comparative example 11 and Comparative example 13” in assay [5].
